Measurements taken from US10570155B2, “Imidazooxazole derivative having antitumor effect, and pharmaceutical composition including same” (KOREA INSTITUTE OF SCIENCE AND TECHNOLOGY, priority 2016, dated 2020).
pIC50: −log10 of the molar value. Read-outs that look alike come from different tables or passages of the source.

Assays:
[1] = tested on: A375P cell line; experiment: Inhibitory activity against proliferation of A375P melanoma cell line (MTT assay); format: cell-based; details: Homo sapiens
Method: To examine whether the compounds (2II, 9II, 10II, and 12II to 15II) of the present disclosure have remarkable effects, as compared with imidazothiazole-based compounds previously disclosed by the present inventors (M. S. Abdel-Maksoud et al./European Journal of Medicinal Chemistry 95 (2015) 453-463), inhibitory activities thereof against proliferation of A375P cell line which is a melanoma cell line were compared by the following experiments.
A375P cell line purchased from ATCC was cultured in a DMEM medium [containing 10% FBS and 1% penicillin/streptomycin] under 5% CO2 at 37° C. The cultured A375P cell line was collected using 0.05% trypsin-0.02% EDTA, and inoculated at a cell density of 5×10^3 cells per well in a 96-well plate. To measure cell viability, MTT [3-(4,5-dimethylthiazol-2-yl)-2,5-diphenyltetrazolium bromide] assay (CellTiter 96 Assay, Promega) was performed as follows. MTT assay was performed in accordance with the guidelines of CellTiter 96® (Promega).

[2] = tested on: LOX IMVI; experiment: NCI cancer cell line panel screening (SRB), melanoma cell line LOX IMVI; format: cell-based, human; details: read-out: IC50 against melanoma cell line in vitro
Method: (§1) According to the standard protocol (http://dtp.nci.nih.gov/dtpstandard/dwindex/index.isp) of the US National Cancer Institute (NCI) (www.dtp.nci.nih.gov), screening of a cancer cell line panel was performed. […] For a general screening experiment, cells were inoculated in 96-well microtiter plates in 100 μl at a plating density ranging from 5000 cells/well to 40,000 cells/well depending on the doubling time of individual cell lines. After cell inoculation, the microtiter plates were incubated at 37° C., 5% CO2, 95% air, and 100% relative humidity for 24 hours prior to addition of test compounds. 24 hours later, two plates of each cell line were fixed in situ with trichloroacetic acid (TCA) to measure the cell population for each cell line at the time of test compound addition (Tz). Test compounds were solubilized in dimethyl sulfoxide at 400-fold the intended final maximum test concentration, and stored frozen prior to use. At the time of compound addition, an aliquot of frozen concentrate was thawed and diluted to twice the intended final maximum test concentration with a complete medium containing 50 μg/ml of gentamicin. Additional four concentration of 10-fold or ½ log serial dilutions were made to provide a total of five compound concentrations plus control. Aliquots of 100 μl of these different compound dilutions were added to appropriate microtiter wells already containing 100 μl of medium, resulting in the required final compound concentrations.
(§2) Following compound addition, the plates were incubated for additional 48 hours at 37° C., 5% CO2, 95% air, and 100% relative humidity. For adherent cells, the assay was terminated by the addition of cold TCA. Cells were fixed in situ by the gentle addition of 50 μl of cold 50% (w/v) TCA (final concentration, 10% TAC) and incubated at 4° C. for 60 minutes. The supernatant was discarded, and the plates were washed five times with tap water and air-dried. A sulforhodamine B (SRB) solution (100 μl) at 0.4% (w/v) in 1% acetic acid was added to each well, and plates were incubated at room temperature for 10 minutes. After staining, unbound dye was removed by washing five times with 1% acetic acid and the plates were air-dried. […] For suspension cells, the methodology was the same except that the assay was terminated by fixing settled cells at the bottom of the wells by gently adding 50 μl of 80% TCA (final concentration, 16% TCA). Using the seven absorbance measurements [time zero (Tz), control growth (C), and test growth rate in the presence of compound at the five concentration levels (Ti)], the growth percentage was calculated at each of the compound concentration levels. Growth inhibition percentage was calculated as follows: [(Ti−Tz)/(C−Tz)]×100 for concentrations for which Ti>/=Tz [(Ti−Tz)/Tz]×100 for concentrations for which Ti<Tz.

[3] = tested on: M14; experiment: NCI cancer cell line panel screening (SRB), melanoma cell line M14; format: cell-based; details: Homo sapiens, read-out: IC50 against melanoma cell line in vitro
Method: (§3) According to the standard protocol (http://dtp.nci.nih.gov/dtpstandard/dwindex/index.isp) of the US National Cancer Institute (NCI) (www.dtp.nci.nih.gov), screening of a cancer cell line panel was performed. Briefly, human cell lines were allowed to grow in an RPMI 1640 medium containing 5% FBS and 2 mM L-glutamine. For a general screening experiment, cells were inoculated in 96-well microtiter plates in 100 μl at a plating density ranging from 5000 cells/well to 40,000 cells/well depending on the doubling time of individual cell lines. After cell inoculation, the microtiter plates were incubated at 37° C., 5% CO2, 95% air, and 100% relative humidity for 24 hours prior to addition of test compounds. 24 hours later, two plates of each cell line were fixed in situ with trichloroacetic acid (TCA) to measure the cell population for each cell line at the time of test compound addition (Tz). Test compounds were solubilized in dimethyl sulfoxide at 400-fold the intended final maximum test concentration, and stored frozen prior to use. At the time of compound addition, an aliquot of frozen concentrate was thawed and diluted to twice the intended final maximum test concentration with a complete medium containing 50 μg/ml of gentamicin. Additional four concentration of 10-fold or ½ log serial dilutions were made to provide a total of five compound concentrations plus control. Aliquots of 100 μl of these different compound dilutions were added to appropriate microtiter wells already containing 100 μl of medium, resulting in the required final compound concentrations.
(§4) Following compound addition, the plates were incubated for additional 48 hours at 37° C., 5% CO2, 95% air, and 100% relative humidity. For adherent cells, the assay was terminated by the addition of cold TCA. Cells were fixed in situ by the gentle addition of 50 μl of cold 50% (w/v) TCA (final concentration, 10% TAC) and incubated at 4° C. for 60 minutes. The supernatant was discarded, and the plates were washed five times with tap water and air-dried. A sulforhodamine B (SRB) solution (100 μl) at 0.4% (w/v) in 1% acetic acid was added to each well, and plates were incubated at room temperature for 10 minutes. After staining, unbound dye was removed by washing five times with 1% acetic acid and the plates were air-dried. Bound stain was subsequently solubilized with 10 mM Trizma base, and the absorbance was read on an automated plate reader at a wavelength of 515 nm. For suspension cells, the methodology was the same except that the assay was terminated by fixing settled cells at the bottom of the wells by gently adding 50 μl of 80% TCA (final concentration, 16% TCA). Using the seven absorbance measurements [time zero (Tz), control growth (C), and test growth rate in the presence of compound at the five concentration levels (Ti)], the growth percentage was calculated at each of the compound concentration levels. Growth inhibition percentage was calculated as follows: [(Ti−Tz)/(C−Tz)]×100 for concentrations for which Ti>/=Tz [(Ti−Tz)/Tz]×100 for concentrations for which Ti<Tz.

[4] = tested on: MDA-MB-435; experiment: NCI cancer cell line panel screening (SRB), melanoma cell line MDA-MB-435; format: cell-based; details: Homo sapiens, read-out: IC50 against melanoma cell line in vitro
Method: as §3, §4

[5] = tested on: SK-MEL-2; experiment: NCI cancer cell line panel screening (SRB), melanoma cell line SK-MEL-2; format: cell-based, human; details: read-out: IC50 against melanoma cell line in vitro
Method: as §1, §2

[6] = tested on: SK-MEL-28; experiment: NCI cancer cell line panel screening (SRB), melanoma cell line SK-MEL-28; format: cell-based, human; details: read-out: IC50 against melanoma cell line in vitro
Method: as §1, §2

[7] = tested on: SK-MEL-5; experiment: NCI cancer cell line panel screening (SRB), melanoma cell line SK-MEL-5; format: cell-based, human; details: read-out: IC50 against melanoma cell line in vitro
Method: as §1, §2

[8] = tested on: UACC-62; experiment: NCI cancer cell line panel screening (SRB), melanoma cell line UACC-62; format: cell-based; details: Homo sapiens, read-out: IC50 against melanoma cell line in vitro
Method: as §3, §4

[9] = target: B-RAF (Homo sapiens (Human), UniProt P15056); experiment: Protein kinase enzymatic activity (Reaction Biology kinase hotspot, 33P-ATP); format: biochemical; details: read-out: Inhibitory effect against kinase activity, B-RAF (IC50)
Chain of B-RAF (P15056 whole entry): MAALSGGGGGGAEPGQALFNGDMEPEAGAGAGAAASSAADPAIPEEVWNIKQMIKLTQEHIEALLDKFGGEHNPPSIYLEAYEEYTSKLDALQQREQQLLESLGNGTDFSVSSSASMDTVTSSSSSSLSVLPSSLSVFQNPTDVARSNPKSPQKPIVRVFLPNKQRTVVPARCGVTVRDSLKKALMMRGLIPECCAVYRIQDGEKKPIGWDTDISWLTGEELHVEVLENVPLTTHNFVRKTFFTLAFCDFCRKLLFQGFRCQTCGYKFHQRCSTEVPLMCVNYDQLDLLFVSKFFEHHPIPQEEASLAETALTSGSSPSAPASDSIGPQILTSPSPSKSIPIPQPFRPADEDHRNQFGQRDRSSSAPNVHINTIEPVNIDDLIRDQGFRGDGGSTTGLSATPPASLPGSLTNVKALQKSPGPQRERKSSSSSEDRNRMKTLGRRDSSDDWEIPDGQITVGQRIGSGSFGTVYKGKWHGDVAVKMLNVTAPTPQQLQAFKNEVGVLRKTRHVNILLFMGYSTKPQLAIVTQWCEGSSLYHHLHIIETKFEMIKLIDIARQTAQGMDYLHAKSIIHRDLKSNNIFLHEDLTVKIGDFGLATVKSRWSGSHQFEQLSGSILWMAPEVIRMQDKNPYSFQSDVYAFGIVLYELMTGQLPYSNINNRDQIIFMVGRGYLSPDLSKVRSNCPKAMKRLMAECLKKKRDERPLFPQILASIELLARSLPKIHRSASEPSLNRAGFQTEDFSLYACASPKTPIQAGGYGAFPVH
Method: (§5) Reaction biology kinase hotspot service (http://www.reactionbiology.com) was used to measure IC50. In a final reaction volume of 25 μL, kinase (5 mU to 10 mU) was incubated with 25 mM Tris (pH 7.5), 0.02 mM EGTA, 0.66 mg/ml of myelin basic protein, 10 mM magnesium acetate, and [^33P-ATP] (specific activity of about 500 CPM/pmol, concentration as required). The reaction was initiated by addition of Mg-ATP mix. After incubation for 40 min at room temperature, the reaction was stopped by addition of 5 μl of a 3% phosphoric acid solution. 10 μL of the reaction was then spotted onto a P30 filtermat and washed three times for 5 minutes in 75 mM phosphoric acid and once in methanol prior to drying and scintillation counting.

[10] = target: V600E-B-RAF (Homo sapiens (Human), UniProt P15056, V600E); experiment: as above; format: biochemical; details: read-out: Inhibitory effect against kinase activity, V600E-B-RAF (IC50)
Chain of V600E-B-RAF (P15056 whole entry V600E): as the sequence (P15056 whole entry) above, with V600E counted along it
Method: as §5

[11] = tested on: A375; experiment: NCI cancer cell line panel screening (SRB), melanoma cell line A375; format: cell-based; details: Homo sapiens, A-375, read-out: IC50 against melanoma cell line in vitro
Method: as §3, §4

O=S1(=O)NCCN1CCNc1nccc(-c2c(-c3cccc(O)c3)nc3sccn23)n1
pIC50 [1]: 6.20

CN1CCN(CCNc2nccc(-c3c(-c4cccc(O)c4)nc4sccn34)n2)S1(=O)=O
pIC50 [1]: 7.22

O=S1(=O)N(CCNc2nccc(-c3c(-c4cccc(O)c4)nc4sccn34)n2)CCN1Cc1ccccc1
pIC50 [1]: 6.60

CC1(C)CN(CCNc2nccc(-c3c(-c4cccc(O)c4)nc4sccn34)n2)S(=O)(=O)N1
pIC50 [1]: 6.06

O=S1(=O)NCCCN1CCNc1nccc(-c2c(-c3cccc(O)c3)nc3sccn23)n1
pIC50 [1]: 6.14

CN1CCCN(CCNc2nccc(-c3c(-c4cccc(O)c4)nc4sccn34)n2)S1(=O)=O
pIC50 [1]: 6.33

CC(C)(C)OC(=O)N1CCCN(CCNc2nccc(-c3c(-c4cccc(O)c4)nc4sccn34)n2)S1(=O)=O
pIC50 [1]: 6.33

COc1ccc(S(=O)(=O)NCCNc2nccc(-c3c(-c4ccccc4)nc4sccn34)n2)cc1 [2III, 4-Methoxy-N-(2-((4-(6-phenylimidazo[2,1-b]thiazol-5-yl)pyrimidin-2-yl)amino)ethyl)benzenesulfonamide]
pIC50 ([2]; Homo sapiens): 5.40 | pIC50 [3]: 5.56 | pIC50 [4]: 5.91 | pIC50 ([5]; Homo sapiens): 5.30 | pIC50 ([6]; Homo sapiens): 5.24 | pIC50 ([7]; Homo sapiens): 5.77 | pIC50 [8]: 5.93 | pIC50 [9]: 6.34 | pIC50 [10]: 7.11

CC1(C)CN(CCNc2nccc(-c3c(-c4cccc(O)c4)nc4occn34)n2)S(=O)(=O)N1 [5II, 2-(2-((4-(6-(3-Hydroxylphenyl)imidazo[2,1-b]oxazol-5-yl)pyrimidin-2-yl)amino)ethyl)-4,4-dimethyl-1,2,5-thiadiazolidine 1,1-dioxide]
pIC50 [11]: 6.06 | pIC50 ([2]; Homo sapiens): 5.64 | pIC50 [3]: 6.49 | pIC50 [4]: 6.13 | pIC50 ([5]; Homo sapiens): 5.80 | pIC50 ([6]; Homo sapiens): 6.66 | pIC50 ([7]; Homo sapiens): 6.47 | pIC50 [8]: 7.05

CN1CCCN(CCNc2nccc(-c3c(-c4cccc(O)c4)nc4occn34)n2)S1(=O)=O [6II, 2-(2-((4-(6-(3-Hydroxylphenyl)imidazo[2,1-b]oxazol-5-yl)pyrimidin-2-yl)amino)ethyl)-6-methyl-1,2,6-thiadiazinane 1,1-dioxide]
pIC50 [11]: 6.33 | pIC50 ([2]; Homo sapiens): 5.36 | pIC50 [3]: 6.80 | pIC50 [4]: 6.31 | pIC50 ([5]; Homo sapiens): 5.64 | pIC50 ([6]; Homo sapiens): 6.62 | pIC50 ([7]; Homo sapiens): 6.62 | pIC50 [8]: 7.24

O=S1(=O)NCCCN1CCNc1nccc(-c2c(-c3cccc(O)c3)nc3occn23)n1 [8II, 2-(2-((4-(6-(3-Hydroxylphenyl)imidazo[2,1-b]oxazol-5-yl)pyrimidin-2-yl)amino)ethyl)-1,2,6-thiadiazinane 1,1-dioxide]
pIC50 [11]: 7.24 | pIC50 ([2]; Homo sapiens): 5.67 | pIC50 [3]: 6.52 | pIC50 [4]: 6.42 | pIC50 ([5]; Homo sapiens): 6.42 | pIC50 ([6]; Homo sapiens): 6.77 | pIC50 ([7]; Homo sapiens): 6.77 | pIC50 [8]: 7.23

COc1cccc(-c2nc3sccn3c2-c2ccnc(NCCNS(=O)(=O)c3ccc(C(F)(F)F)cc3)n2)c1 [8III, N-(2-((4-(6-(3-methoxyphenyl)imidazo[2,1-b]thiazol-5-yl)pyrimidin-2-yl)amino)ethyl)-4-(trifluoromethyl)benzenesulfonamide]
pIC50 [2]: 5.49 | pIC50 [5]: 5.52 | pIC50 [6]: 5.43 | pIC50 [7]: 5.91 | pIC50 [8]: 6.32 | pIC50 [9]: 6.16 | pIC50 [10]: 7.01

O=S(=O)(NCCNc1nccc(-c2c(-c3cccc(O)c3)nc3sccn23)n1)c1ccc(F)cc1 [25III, 4-Fluoro-N-(2-((4-(6-(3-hydroxylphenyl)imidazo[2,1-b]thiazol-5-yl)pyrimidin-2-yl)amino)ethyl)benzenesulfonamide]
pIC50 [11]: 6.32 | pIC50 [2]: 5.39 | pIC50 [3]: 6.25 | pIC50 [4]: 6.03 | pIC50 [5]: 5.35 | pIC50 ([6]; Homo sapiens): 6.18 | pIC50 [7]: 5.79 | pIC50 [8]: 6.59 | pIC50 [9]: 8.24 | pIC50 [10]: 9.00

CCN1CCN(CCNc2nccc(-c3c(-c4cccc(O)c4)nc4occn34)n2)S1(=O)=O [drawing 151]
pIC50 [1]: 6.72

O=S1(=O)NCCN1CCNc1nccc(-c2c(-c3ccc(F)cc3)nc3sccn23)n1 [reference compound]
pIC50 [1]: 5.72

CN1CCN(CCNc2nccc(-c3c(-c4ccc(F)cc4)nc4sccn34)n2)S1(=O)=O [reference compound]
pIC50 [1]: 6.22

CCN1CCN(CCNc2nccc(-c3c(-c4ccc(F)cc4)nc4sccn34)n2)S1(=O)=O [reference compound]
pIC50 [1]: 6.42

O=S1(=O)N(CCNc2nccc(-c3c(-c4ccc(F)cc4)nc4sccn34)n2)CCN1Cc1ccccc1 [reference compound]
pIC50 [1]: < 5.00

CC(C)(C)OC(=O)N1CCN(CCNc2nccc(-c3c(-c4ccc(F)cc4)nc4sccn34)n2)S1(=O)=O [reference compound]
pIC50 [1]: < 5.00
